The results in this text go back to patent US5304633A, “Fragments of lactoferrin having potent antimicrobial activity” (priority 1990, dated 1994).

Like-named read-outs stand apart in the source and are kept apart here. Positions of bridges follow the written chain, without caps; N, C: chain ends. Chains are numbered I, II in the order given. No end group written: not given here.

Assay [1] relates to gram-positive bacteria and gram-negative bacteria, including aerobic and anaerobic bacteria and yeast. Description: Antimicrobial spectrum, MIC in liquid medium (Experiment 12), overall. The following applies: many types of gram-positive and gram-negative bacteria and yeast; peptone or PYG medium. The assay is classed as cell-based. The protocol: The various microorganisms shown in Table 3 and in Table 4 were incubated for 16 to 20 hours in 2 ml of peptone medium which consisted of 1% Bactopeptone (manufactured by Difco Laboratory Co.), or in 2 ml of PYG medium which consisted of 1% Bactopeptone (manufactured by Difco Laboratory Co.), 1% glucose and 0.05% yeast extract. The antimicrobial peptide was added to each medium at various ratios of 0 μg/ml to 60 μg/ml. Standard bacterial strains of various microorganisms in the logarithmic phase were inoculated into the various media at a cell concentration of 10^6 /ml and incubated at 37° C., with the exception of the bacterial strains mentioned in the footnotes of the tables. The growth of the various microorganisms was studied by measuring the light absorption at 660 nm.

Another assay deals with various fungi. The following applies: 20 h.
For a further assay, the system named is Escherichia coli. The assay is classed as cell-based. The following applies: 16 h. Here is the method:
Bactocasitone (manufactured by Difco Laboratory Co.) was dissolved at a concentration of 1% in purified water, the pH was adjusted to 7.0 with 1M sodium hydroxide, the solution was sterilized at 115° C. for 15 minutes and a basal medium (liquid medium) was prepared. Each sample was dissolved at a concentration of […] in purified water, sterilization was performed by using a sterilization filter (manufactured by […] Co.) and test media, prepared by adding samples at concentrations of 1, 5, 10, 50 and 100 ppm to the basal medium, as well as a control medium with no added samples, were prepared. […] wherein A is the difference in turbidity of the test culture medium (the difference between the turbidity of the test culture medium after 16 hours of culture and the turbidity of the test culture medium before the culturing) and B is the turbidity of the control medium (the difference between the turbidity of the control culture medium after 16 hours of culture and the turbidity of the control culture medium before the culturing). The percentages of the rate of inhibition of proliferation are not in weight (same hereinafter).

For `CC[C@H](C)[C@@H]1NC(=O)[C@H](CO)NC(=O)[C@@H]2CCCN2C(=O)[C@H](C)NC(=O)CNC(=O)[C@H](CC(C)C)NC(=O)[C@H](CCCCN)NC(=O)[C@H](CCCCN)NC(=O)[C@H](CCSC)NC(=O)[C@H](CCCNC(=N)N)NC(=O)[C@H](Cc2c[nH]c3ccccc23)NC(=O)[C@H](CCC(N)=O)NC(=O)[C@H](Cc2c[nH]c3ccccc23)NC(=O)[C@H](CCCNC(=N)N)NC(=O)[C@H](CCCNC(=N)N)NC(=O)[C@@H](NC(=O)[C@H](CCCCN)NC(=O)[C@@H](N)Cc2ccccc2)CSSC[C@@H](C(=O)N[C@H](C(=O)N[C@@H](CCCNC(=N)N)C(=O)N[C@@H](CCCNC(=N)N)C(=O)N[C@@H](C)C(=O)N[C@@H](Cc2ccccc2)C(=O)O)C(C)C)NC(=O)[C@H]([C@@H](C)O)NC1=O` [antimicrobial peptide of Example 1], the “concentration showing antimicrobial activity (MIC, summary of Tables 3 and 4)” value in assay [1] is recorded as “less than 45 μg/ml”. Further, the “concentration showing antimicrobial activity (MIC, summary of Table 7)” value with various fungi is “less than 45 μg/ml”.

“I: VSQPEATKCFQWQRNMRKVRGPPVSCIKRDSPIQCI / II: GRRRRSVQWCA (disulfide I:9-I:26, I:35-II:10) [antimicrobial peptide of Example 3]”: the “inhibitory rate (rate of inhibition of E. coli proliferation)” value is 3% in the assay with Escherichia coli (1 ppm); 86% with Escherichia coli (5 ppm); 100% with Escherichia coli (10 ppm); 100% with Escherichia coli (50 ppm); 100% in the assay on Escherichia coli (100 ppm).
